Test [1] has as its target T1, cytoplasmic domain of the human VEGF receptor (VEGFR-2) (Homo sapiens, UniProt P35968).
T1 construct: The cytoplasmic domain of the human VEGF receptor (VEGFR-2) was expressed as a Histidine-tagged fusion protein; Histidine tag
Description: KDR Assay. The test is classed as biochemical. The settings on record: His-VEGFR-2; 3.6 μM ATP. A digest of the protocol: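 IC50 taken from blank-corrected OD492 curves of an anti-phosphotyrosine peroxidase ELISA. Reaction: 10 min, 25 °C, 3.6 μM ATP, 50 mM Hepes pH 7.4 with 20 mM MgCl2, 0.1 mM MnCl2 and 5% DMSO, on poly-Glu-Tyr-coated wells, started with insect-cell-expressed His-VEGFR-2 cytoplasmic domain.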

In test [2] the test system is VEGF induced increases in intracellular calcium levels in HUVEC (human umbilical vein endothelial cells). Description: VEGF Stimulated Ca++ Signal in vitro (FLIPR). The format is cell-based. As to conditions: VEGF 5 ng/mL; for IC50: 0.01 to 10.0 μM. In a few lines:
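IC50 values derive from % inhibition of the VEGF (5 ng/mL) calcium response, taken as max-min fluorescence at 516 nm in Fluo-4-loaded HUVEC. Compounds (0.1% DMSO final) were added 30 min before stimulation, at 10 μM or across 0.01–10.0 μM.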

T1 sequence (P35968 786-1356): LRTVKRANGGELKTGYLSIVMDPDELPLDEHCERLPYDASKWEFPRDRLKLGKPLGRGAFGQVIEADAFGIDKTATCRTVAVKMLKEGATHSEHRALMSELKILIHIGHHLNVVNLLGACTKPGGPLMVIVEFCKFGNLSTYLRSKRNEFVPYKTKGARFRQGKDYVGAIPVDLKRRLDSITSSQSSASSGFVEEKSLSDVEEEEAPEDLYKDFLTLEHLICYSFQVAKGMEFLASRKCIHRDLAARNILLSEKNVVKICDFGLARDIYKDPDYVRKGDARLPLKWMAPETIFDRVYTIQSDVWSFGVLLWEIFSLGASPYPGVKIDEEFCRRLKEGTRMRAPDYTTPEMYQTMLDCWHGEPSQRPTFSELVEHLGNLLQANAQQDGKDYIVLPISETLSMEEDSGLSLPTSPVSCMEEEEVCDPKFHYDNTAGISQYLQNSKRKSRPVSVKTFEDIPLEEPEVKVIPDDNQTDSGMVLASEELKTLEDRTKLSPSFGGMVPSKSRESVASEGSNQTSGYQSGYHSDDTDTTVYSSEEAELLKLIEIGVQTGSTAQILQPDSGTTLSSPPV

A word on the IC50: it is the concentration that inhibits the measured activity by half. A word on the inhibition: it is the relative decrease from the control value, in per cent. In test [1], `COc1ccc(NC=C2C(=O)Nc3cccc(C)c32)cc1F` [Example 91, 3-[(3-Fluoro-4-methoxy-phenylamino)-methylene]-4-methyl-1,3-dihydro-indol-2-one] yielded an IC50 of 240 nM. For the same molecule, in test [2] (Homo sapiens), the inhibition at 10 µM was determined as 93.5% and the IC50 is 3020 nM.
The like results for `Cc1cccc2c1C(=CNc1ccc3ncsc3c1)C(=O)N2` [Example 92, 3-(Benzothiazol-6-ylaminomethylene)-4-methyl-1,3-dihydro-indol-2-one] were, in that order, 150 nM, 69% and 1770 nM.
In the same order, the values of `COC(=O)c1ccc(NC=C2C(=O)Nc3cccc(C)c32)cc1OC` [Example 93, 2-Methoxy-4-[(4-methyl-2-oxo-1,2-dihydro-indol-3-ylidenemethyl)-amino]-benzoic acid methyl ester] are 630 nM, 51.5% and 6620 nM.
The like results for `COc1cccc(NC=C2C(=O)Nc3ccccc32)c1` [Example 94, 3-[(3-Methoxy-phenylamino)-methylene]-1,3-dihydro-indol-2-one] were, in that order, 640 nM, 92.5% and 3880 nM.
`Cc1cccc2c1C(=CNc1ccc(O)cc1)C(=O)N2` [Example 96, 3-[(4-Hydroxy-phenylamino)-methylene]-4-methyl-1,3-dihydro-indol-2-one] showed an IC50 in test [1] of 200 nM. For the same molecule, in test [2] (Homo sapiens), the inhibition at 10 µM was 97% and the IC50 is 1680 nM.
Turning to `Cc1cccc2c1C(=CNc1ccc3cc[nH]c3c1)C(=O)N2` [Example 97, 3-[(1H-Indol-6-ylamino)-methylene]-4-methyl-1,3-dihydro-indol-2-one], the IC50 is 200 nM in test [1] and 1860 nM in test [2] (Homo sapiens). In addition, in test [2] (Homo sapiens), the inhibition at 10 µM is 96.5%.
As for `Cc1cccc2c1C(=CNc1ccc(CO)cc1)C(=O)N2` [Example 99, 3-[(4-Hydroxymethyl-phenylamino)-methylene]-4-methyl-1,3-dihydro-indol-2-one], in test [1], it took 210 nM to reach half-maximal inhibition (IC50). The inhibition at 10 µM in test [2] (Homo sapiens) was determined as 97.8%.
Consider `COc1ccc(NC=C2C(=O)Nc3ccc(Cl)cc32)cc1OC` [Example 102, 5-Chloro-3-[(3,4-dimethoxyphenylamino)-methylene]-1,3-dihydro-indol-2-one], for which, in test [1], the IC50 worked out at 650 nM. For the same molecule, in test [2] (Homo sapiens), the inhibition at 10 µM came out at 82.5% and the IC50 came out at 5910 nM.
In the same order, the values of `O=C1Nc2ccc(Cl)cc2C1=CNc1ccc2cn[nH]c2c1` [Example 103] are 480 nM, 96.6% and 1040 nM.
Take `O=C1Nc2ccc(Cl)cc2C1=CNc1ccc(N2CCOCC2)cc1` [Example 106, 5-Chloro-3-[(4-morpholinophenylamino)-methylene]-1,3-dihydro-indol-2-one]: the IC50 is 230 nM in test [1], 600 nM in test [2] and not above 1000 nM in test [2] (Homo sapiens). Besides, in test [2] (Homo sapiens), the inhibition at 10 µM came out at 96.6%.
As for `CCN(CC)Cc1cc(NC=C2C(=O)Nc3ccc(Cl)cc32)ccc1O` [Example 109, 5-Chloro-3-[(4-hydoxy-3-(diethylaminomethyl)phenylamino)-methylene]-1,3-dihydro-indol-2-one], the IC50 in test [1] came to 600 nM. Also, in test [2] (Homo sapiens), the inhibition at 10 µM was determined as 96.5% and the IC50 came out at 1700 nM.
The like results for `O=C1Nc2ccc(Cl)cc2C1=CNc1ccc2[nH]ccc2c1` [Example 110, 5-(5-Chloro-2-oxo-1,2-dihydro-indol-3-ylidenemethylamino)indole] were, in that order, 570 nM, 95% and 1550 nM.
The like results for `O=C1Nc2ccc(Cl)cc2C1=CNc1ccc(CO)cc1` [Example 111, 5-Chloro-3-[(4-(hydoxymethyl)phenylamino)-methylene]-1,3-dihydro-indol-2-one] were, in that order, 430 nM, 98.5% and 1170 nM.
As for `Cc1cccc2c1C(=CNc1ccc(CCO)cc1)C(=O)N2` [Example 113, 3-{[4-(2-Hydroxy-ethyl)-phenylamino]-methylene}-4-methyl-1,3-dihydro-indol-2-one], in test [1], the IC50 stood at 200 nM. In addition, the inhibition at 10 µM in test [2] (Homo sapiens) stood at 97.5%.
Consider `CC(=O)Nc1ccc(NC=C2C(=O)Nc3ccc(Cl)cc32)cc1` [Example 114, N-{4-[(5-Chloro-2-oxo-1,2-dihydro-indol-3-ylidenemethyl)-amino]-phenyl}-acetamide], for which, in test [1], the IC50 amounted to 920 nM. For the same molecule, in test [2] (Homo sapiens), the inhibition at 10 µM turned out to be 89% and the IC50 was determined as 1930 nM.
In the same order, the values of `O=C(O)Cc1ccc(NC=C2C(=O)Nc3ccc(Cl)cc32)cc1` [Example 115, {4-[(5-Chloro-2-oxo-1,2-dihydro-indol-3-ylidenemethyl)-amino]-phenyl}-acetic acid] are 470 nM, 98.2% and 3080 nM.
In the same order, the values of `NS(=O)(=O)c1ccc(NC=C2C(=O)Nc3ccc(Cl)cc32)cc1` [Example 116, 4-[(5-Chloro-2-oxo-1,2-dihydro-indol-3-ylidenemethyl)-amino]-benzenesulfonamide] are 980 nM, 99.4% and 1640 nM.
`COc1ccc(NC=C2C(=O)Nc3cccc(C)c32)cc1O` [Example 117, 3-[(3-Hydroxy-4-methoxy-phenylamino)-methylene]-4-methyl-1,3-dihydro-indol-2-one] registered an IC50 in test [1] of 310 nM. Besides, the inhibition at 10 µM in test [2] (Homo sapiens) came to 97.7%.
Turning to `Cc1cccc2c1C(=CNc1ccc(OC(F)F)cc1)C(=O)N2` [Example 119, 3-{[4-(1,1-Difluoro-methoxy)-phenylamino]-methylene}-4-methyl-1,3-dihydro-indol-2-one], the IC50 in test [1] stood at 530 nM. Further, in test [2] (Homo sapiens), the inhibition at 10 µM was 89.3% and the IC50 is 1340 nM.
The like results for `CCOc1ccc(NC=C2C(=O)Nc3cccc(C)c32)cc1` [Example 122, 3-[(4-Ethoxy-phenylamino)-methylene]-4-methyl-1,3-dihydro-indol-2-one] were, in that order, 370 nM, 71.7% and 1540 nM.
The like results for `Cc1cccc2c1C(=CNc1ccc(C(C)C)cc1)C(=O)N2` [Example 123, 3-[(4-Isopropyl-phenylamino)-methylene]-4-methyl-1,3-dihydro-indol-2-one] were, in that order, 590 nM, 49.9% and 4430 nM.
The like results for `Cc1cccc2c1C(=CNc1ccc3c(c1)OCO3)C(=O)N2` [Example 124, 3-(Benzo[1,3]dioxol-5-ylaminomethylene)-4-methyl-1,3-dihydro-indol-2-one] were, in that order, 520 nM, 71.9% and 1960 nM.
In test [1], `Cc1ccc(NC=C2C(=O)Nc3cccc(C)c32)cc1O` [Example 125, 3-[(3-Hydroxy-4-methyl-phenylamino)-methylene]-4-methyl-1,3-dihydro-indol-2-one] gave an IC50 of 670 nM. In test [2] (Homo sapiens), the inhibition at 10 µM amounted to 96.5% and the IC50 stood at 1860 nM.
In the same order, the values of `COc1ccc(NC=C2C(=O)Nc3cccc(C)c32)cc1OC` [Example 126, 3-[(3,4-Dimethoxy-phenylamino)-methylene]-4-methyl-1,3-dihydro-indol-2-one] are 340 nM, 95.2% and 1220 nM.

The record behind these values is patent US20030225152A1, “3-(Arylamino)methylene-1, 3-dihydro-2h-indol-2-ones as kinase inhibitors” (priority 2001, published 2003).
